Laboratory results: patent US11739074B2, “Ras inhibitors” (Revolution Medicines, Inc., priority 2019, dated 2023)
Read-outs that look alike come from different tables or passages of the source.

Columns and labels:
[1] = tested on: AsPC-1 (K-Ras G12D); assay: Potency assay: pERK in AsPC-1 cells; type: cell-based; conditions: Homo sapiens
[2] = molecular target: KRAS G12V (Homo sapiens, UniProt P01116+P62937, G12V); assay: Ras-Raf disruption/FRET/MOA assay, KRAS G12V; type: biochemical
Source text: (§1) Disruption of B-Raf Ras-Binding Domain (BRAF^RBD) Interaction with K-Ras by Compounds of the Invention (Also Called a FRET Assay or an MOA Assay)
(§2) Note—The following protocol describes a procedure for monitoring disruption of K-Ras G12C (GMP-PNP) binding to BRAF^RBD by a compound of the invention. This protocol may also be executed substituting other Ras proteins or nucleotides, such as K-Ras G12D and K-Ras G13D.
(§3) The purpose of this biochemical assay was to measure the ability of test compounds to facilitate ternary complex formation between a nucleotide-loaded K-Ras isoform and Cyclophilin A; the resulting ternary complex disrupts binding to a BRAF^RBD construct, inhibiting K-Ras signaling through a RAF effector.
(§4) In assay buffer containing 25 mM HEPES pH 7.3, 0.002% Tween20, 0.1% BSA, 100 mM NaCl and 5 mM MgCl2, tagless Cyclophilin A, His6-K-Ras-GMPPNP, and GST-BRAF^RBD were combined in a 384-well assay plate at final concentrations of 25 μM, 12.5 nM, and 50 nM, respectively. Compound was present in plate wells as a 10-point 3-fold dilution series starting at a final concentration of 30 μM. After incubation at 25° C. for 3 hours, a mixture of anti-His Eu-W1024 and anti-GST allophycocyanin was then added to assay sample wells at final concentrations of 10 nM and 50 nM, respectively, and the reaction incubated for an additional 1.5 hours. […] Compounds that facilitate disruption of a K-Ras:RAF complex were identified as those eliciting a decrease in the TR-FRET ratio relative to DMSO control wells.

[3] = molecular target: KRAS G12S (Homo sapiens, UniProt P01116+P62937, G12S); assay: Ras-Raf disruption/FRET/MOA assay, KRAS G12S; type: biochemical
Source text: as §1, §2, §3, §4

[4] = molecular target: KRAS G12D (Homo sapiens, UniProt P01116+P62937, G12D); assay: Ras-Raf disruption/FRET/MOA assay, KRAS G12D; type: biochemical
Source text: as §1, §2, §3, §4

[5] = molecular target: KRAS WT (Homo sapiens, UniProt P01116+P62937); assay: Ras-Raf disruption/FRET/MOA assay, KRAS WT; type: biochemical
Source text: as §1, §2, §3, §4

[6] = molecular target: KRAS G12C (Homo sapiens, UniProt P01116+P62937, G12C); assay: Ras-Raf disruption/FRET/MOA assay, KRAS G12C; type: biochemical
Source text: as §1, §2, §3, §4

[7] = molecular target: KRAS G13C (Homo sapiens, UniProt P01116+P62937, G13C); assay: Ras-Raf disruption/FRET/MOA assay, KRAS G13C; type: biochemical
Source text: as §1, §2, §3, §4

[8] = molecular target: KRAS G13D (Homo sapiens, UniProt P01116+P62937, G13D); assay: Ras-Raf disruption/FRET/MOA assay, KRAS G13D; type: biochemical
Source text: as §1, §2, §3, §4

[9] = molecular target: T1, NRAS G12C (Homo sapiens, UniProt P01111+P62937, G12C); assay: Ras-Raf disruption/FRET/MOA assay, NRAS G12C; type: biochemical
T1 construct: His6
Source text: as §1, §2, §3, §4

[10] = tested on: AsPC-1 (K-Ras G12D); assay: CellTiter-Glo cell viability assay, AsPC-1; type: cell-based; conditions: Homo sapiens, ASPC1, 120 h
Summary of the method: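 Direct compound addition to plated cells; 5-day exposure; ~30 min RT equilibration; CellTiter-Glo luminescence. Normalization: (sample/avg DMSO)*100; 4-parameter logistic curve fit.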

[11] = ASPC1, AsPC-1 cells, K-Ras G12D, read-out: pERK EC50 (AsPC-1 KRAS G12D)
[12] = disruption of BRAF RBD binding, with Cyclophilin A, read-out: KRAS G12V FRET IC50
[13] = disruption of BRAF RBD binding, with Cyclophilin A, read-out: KRAS G12S FRET IC50
[14] = disruption of BRAF RBD binding, with Cyclophilin A, read-out: KRAS G12D FRET IC50
[15] = disruption of BRAF RBD binding, with Cyclophilin A, read-out: KRAS WT FRET IC50
[16] = disruption of BRAF RBD binding, with Cyclophilin A, read-out: KRAS G12C FRET IC50
[17] = disruption of BRAF RBD binding, with Cyclophilin A, read-out: KRAS G13C FRET IC50
[18] = disruption of BRAF RBD binding, with Cyclophilin A, read-out: KRAS G13D FRET IC50
[19] = NRAS G12C, read-out: NRAS G12C FRET data IC50
[20] = AsPC-1, K-Ras G12D, 5-day treatment, read-out: AsPC-1 Cell Viability IC50
[21] = ASPC1, read-out: pERK EC50 (AsPC-1 KRAS G12D)
[22] = NRAS G12C FRET data IC50, NRAS G12C
[23] = read-out: AsPC-1 Cell Viability IC50, AsPC-1, K-Ras G12D, 5-day treatment

KRAS G13D, sequence (P01116 1-169 isoform P01116-2 G13D limits assumed): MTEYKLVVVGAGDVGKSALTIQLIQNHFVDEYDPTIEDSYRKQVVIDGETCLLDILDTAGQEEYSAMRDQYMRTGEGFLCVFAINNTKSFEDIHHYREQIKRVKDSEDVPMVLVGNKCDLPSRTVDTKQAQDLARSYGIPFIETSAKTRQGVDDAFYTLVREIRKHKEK
KRAS G13D, sequence (P62937 whole entry): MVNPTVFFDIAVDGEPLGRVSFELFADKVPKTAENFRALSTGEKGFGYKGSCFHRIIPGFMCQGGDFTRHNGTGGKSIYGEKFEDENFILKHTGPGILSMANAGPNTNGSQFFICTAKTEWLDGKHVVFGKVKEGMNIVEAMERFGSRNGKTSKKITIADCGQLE
KRAS G12V, sequence (P01116 1-169 isoform P01116-2 G12V limits assumed): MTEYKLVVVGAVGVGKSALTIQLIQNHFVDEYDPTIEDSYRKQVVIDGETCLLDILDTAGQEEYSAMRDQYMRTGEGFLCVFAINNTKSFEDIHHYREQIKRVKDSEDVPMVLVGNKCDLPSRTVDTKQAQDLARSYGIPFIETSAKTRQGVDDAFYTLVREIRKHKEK
KRAS G12V, sequence (P62937 whole entry, the tested form may be a part): as the sequence (P62937 whole entry) above
KRAS G13C, sequence (P01116 1-169 isoform P01116-2 G13C limits assumed): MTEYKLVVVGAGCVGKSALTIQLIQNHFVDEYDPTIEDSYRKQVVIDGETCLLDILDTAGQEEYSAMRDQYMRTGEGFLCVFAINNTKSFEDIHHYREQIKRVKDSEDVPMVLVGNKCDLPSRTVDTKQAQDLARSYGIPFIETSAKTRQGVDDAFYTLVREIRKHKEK
KRAS G13C, sequence (P62937 whole entry): as the sequence (P62937 whole entry) above
KRAS WT, sequence (P01116 1-169 isoform P01116-2 limits assumed): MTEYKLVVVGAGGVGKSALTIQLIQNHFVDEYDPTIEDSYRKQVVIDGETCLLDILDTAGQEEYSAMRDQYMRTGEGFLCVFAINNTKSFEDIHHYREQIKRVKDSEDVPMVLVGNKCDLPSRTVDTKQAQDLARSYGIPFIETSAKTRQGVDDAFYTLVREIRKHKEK
KRAS WT, sequence (P62937 whole entry): as the sequence (P62937 whole entry) above
KRAS G12C, sequence (P01116 1-169 isoform P01116-2 G12C limits assumed): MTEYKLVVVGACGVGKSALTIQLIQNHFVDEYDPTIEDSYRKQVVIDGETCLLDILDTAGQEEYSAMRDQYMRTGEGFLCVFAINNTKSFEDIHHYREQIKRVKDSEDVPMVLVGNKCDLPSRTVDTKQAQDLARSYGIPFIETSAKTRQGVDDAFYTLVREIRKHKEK
KRAS G12C, sequence (P62937 whole entry): as the sequence (P62937 whole entry) above
KRAS G12D, sequence (P01116 1-169 isoform P01116-2 G12D limits assumed): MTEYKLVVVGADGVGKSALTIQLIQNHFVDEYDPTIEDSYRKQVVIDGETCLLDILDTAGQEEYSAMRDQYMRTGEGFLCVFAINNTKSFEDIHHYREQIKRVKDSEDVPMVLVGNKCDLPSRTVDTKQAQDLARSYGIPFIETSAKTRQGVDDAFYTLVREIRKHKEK
KRAS G12D, sequence (P62937 whole entry): as the sequence (P62937 whole entry) above
KRAS G12S, sequence (P01116 1-169 isoform P01116-2 G12S limits assumed): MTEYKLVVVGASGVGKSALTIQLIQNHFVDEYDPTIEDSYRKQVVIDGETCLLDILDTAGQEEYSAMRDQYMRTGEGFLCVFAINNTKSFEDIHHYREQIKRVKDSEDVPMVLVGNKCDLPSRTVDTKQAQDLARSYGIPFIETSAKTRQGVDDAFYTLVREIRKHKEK
KRAS G12S, sequence (P62937 whole entry): as the sequence (P62937 whole entry) above
T1 sequence (P01111 whole entry G12C): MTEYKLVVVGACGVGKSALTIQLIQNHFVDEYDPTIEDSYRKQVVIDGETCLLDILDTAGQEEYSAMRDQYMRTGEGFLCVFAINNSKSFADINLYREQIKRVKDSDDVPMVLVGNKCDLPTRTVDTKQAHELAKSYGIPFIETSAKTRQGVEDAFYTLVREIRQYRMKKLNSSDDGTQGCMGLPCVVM
T1 sequence (P62937 whole entry): as the sequence (P62937 whole entry) above

SMILES	EC50 [1, 11]	IC50 [2, 12]	IC50 [3, 13]	IC50 [4, 14]	IC50 [5, 15]	IC50 [6, 16]	IC50 [7, 17]	IC50 [8, 18]	IC50 [9, 19]	IC50 [10, 20]	EC50 [1, 21]	IC50 [2]	IC50 [3]	IC50 [4]	IC50 [5]	IC50 [6]	IC50 [7]	IC50 [8]	IC50 [9, 22]	IC50 [10, 23]	also measured
CCn1c(-c2cnccc2COC)c2c3cc(ccc31)-c1cc(O)cc(c1)C[C@H](NC(=O)[C@H](C(C)C)N(C)C(=O)[C@H]1CCN(C(=O)N3C[C@@H]3C(=O)OC)C1)C(=O)N1CCC[C@H](N1)C(=O)OCC(C)(C)C2 [Compound 94]	< 5000 nM	100 to 1000 nM	100 to 1000 nM	1000 to 10000 nM	100 to 1000 nM	10 to 100 nM	10 to 100 nM	100 to 1000 nM	100 to 1000 nM	> 10000 nM	–	–	–	–	–	–	–	–	–	–	–
CCn1c(-c2cnccc2COC)c2c3cc(ccc31)-c1cc(O)cc(c1)C[C@H](NC(=O)[C@H](C(C)C)N(C)C(=O)CN(C)C(=O)[C@@H]1[C@H](C3CC3)N1[S@@+]([O-])C(C)(C)C)C(=O)N1CCC[C@H](N1)C(=O)OCC(C)(C)C2 (stereo partly drawn) [Compound 101]	–	100 to 1000 nM	100 to 1000 nM	100 to 1000 nM	100 to 1000 nM	10 to 100 nM	100 to 1000 nM	100 to 1000 nM	10 to 100 nM	–	< 5000 nM	–	–	–	–	–	–	–	–	–	IC50 ([10]; read-out: AsPC-1 Cell Viability IC50): 1000 to 10000 nM
CCn1c(-c2cnccc2COC)c2c3cc(ccc31)-c1cc(O)cc(c1)C[C@H](NC(=O)[C@H](C(C)C)N(C)C(=O)CN(C)C(=O)[C@@H]1N[C@@H]1c1ccccc1)C(=O)N1CCC[C@H](N1)C(=O)OCC(C)(C)C2 [Compound 110]	–	–	–	–	–	–	–	–	–	–	< 5000 nM	100 to 1000 nM	10 to 100 nM	100 to 1000 nM	10 to 100 nM	10 to 100 nM	100 to 1000 nM	100 to 1000 nM	10 to 100 nM	1000 to 10000 nM	–
CCn1c(-c2cccnc2[C@H](C)OC)c2c3cc(ccc31)-c1cc(O)cc(c1)C[C@H](NC(=O)[C@H](C(C)C)N(C)C(=O)CN(C)C(=O)[C@H]1N[C@H]1C1CC1)C(=O)N1CCC[C@H](N1)C(=O)OCC(C)(C)C2 [Compound 134]	–	–	–	–	–	–	–	–	–	–	< 5000 nM	100 to 1000 nM	10 to 100 nM	100 to 1000 nM	10 to 100 nM	10 to 100 nM	10 to 100 nM	100 to 1000 nM	10 to 100 nM	1000 to 10000 nM	–
CCn1c(-c2cccnc2[C@H](C)OC)c2c3cc(ccc31)-c1cc(O)cc(c1)C[C@H](NC(=O)[C@H](C(C)C)N1CC[C@]3(CCN(C[C@@H]4CN4)C3)C1=O)C(=O)N1CCC[C@H](N1)C(=O)OCC(C)(C)C2 [Compound 176]	< 5000 nM	100 to 1000 nM	10 to 100 nM	100 to 1000 nM	10 to 100 nM	10 to 100 nM	10 to 100 nM	10 to 100 nM	10 to 100 nM	1000 to 10000 nM	–	–	–	–	–	–	–	–	–	–	–
CCn1c(-c2cccnc2[C@H](C)OC)c2c3cc(ccc31)-c1cc(O)cc(c1)C[C@H](NC(=O)[C@H](C(C)C)N1CC[C@]3(CCCN(C(=O)[C@@H]4CN4)C3)C1=O)C(=O)N1CCC[C@H](N1)C(=O)OCC(C)(C)C2 [Compound 192]	< 5000 nM	10 to 100 nM	100 to 1000 nM	100 to 1000 nM	100 to 1000 nM	< 10 nM	100 to 1000 nM	1000 to 10000 nM	< 10 nM	1000 to 10000 nM	–	–	–	–	–	–	–	–	–	–	–
